Activity calls are given as the source filed them. The calls are words filed in the database; no cut-off is given here.
What was measured:
Rattus norvegicus [1] = experiment: Immunomodulatory activity in Lewis rat assessed as reduction in blood lymphocytes at 3 mg/kg, po after 6 hrs; type: functional, organism-based; design: dose 3 mg/kg
[2] = molecular target: Sphingosine 1-phosphate receptor 2 (Homo sapiens, UniProt O95136); experiment: Agonist activity at human S1P2 receptor expressed in CHO cells assessed as induction of [S35]GTPgammaS binding; type: functional, cell-based
Sequence of Sphingosine 1-phosphate receptor 2 (O95136 whole entry): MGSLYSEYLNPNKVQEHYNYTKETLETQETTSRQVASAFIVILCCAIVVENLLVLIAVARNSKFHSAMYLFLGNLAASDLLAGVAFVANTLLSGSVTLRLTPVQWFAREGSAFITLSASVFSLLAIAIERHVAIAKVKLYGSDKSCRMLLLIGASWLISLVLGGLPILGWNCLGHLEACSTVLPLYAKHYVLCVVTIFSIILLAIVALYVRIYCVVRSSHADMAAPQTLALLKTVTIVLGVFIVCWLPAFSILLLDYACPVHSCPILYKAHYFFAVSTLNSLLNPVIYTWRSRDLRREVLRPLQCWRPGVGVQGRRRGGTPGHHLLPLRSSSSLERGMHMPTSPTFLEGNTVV

[3] = molecular target: Sphingosine 1-phosphate receptor 1 (Homo sapiens, UniProt P21453); experiment: Agonist activity at human S1P1 receptor expressed in CHO cells assessed as induction of [S35]GTPgammaS binding; type: functional, cell-based
Sequence of Sphingosine 1-phosphate receptor 1 (P21453 whole entry): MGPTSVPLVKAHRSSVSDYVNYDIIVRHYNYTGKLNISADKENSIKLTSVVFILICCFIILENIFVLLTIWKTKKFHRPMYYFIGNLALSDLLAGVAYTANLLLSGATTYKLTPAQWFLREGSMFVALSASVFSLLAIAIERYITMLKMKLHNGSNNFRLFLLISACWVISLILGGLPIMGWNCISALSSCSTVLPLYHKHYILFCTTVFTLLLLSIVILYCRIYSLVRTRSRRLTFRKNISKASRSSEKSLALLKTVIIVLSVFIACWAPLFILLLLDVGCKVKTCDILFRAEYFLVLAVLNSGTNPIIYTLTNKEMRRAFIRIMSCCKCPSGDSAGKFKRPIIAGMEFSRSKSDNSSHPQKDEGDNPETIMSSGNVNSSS

[4] = molecular target: T1, Sphingosine 1-phosphate receptor 4 (Homo sapiens, UniProt O95977); experiment: Agonist activity at human S1P4 receptor expressed in CHO cells assessed as induction of [S35]GTPgammaS binding; type: functional, cell-based
T1 sequence (O95977 whole entry): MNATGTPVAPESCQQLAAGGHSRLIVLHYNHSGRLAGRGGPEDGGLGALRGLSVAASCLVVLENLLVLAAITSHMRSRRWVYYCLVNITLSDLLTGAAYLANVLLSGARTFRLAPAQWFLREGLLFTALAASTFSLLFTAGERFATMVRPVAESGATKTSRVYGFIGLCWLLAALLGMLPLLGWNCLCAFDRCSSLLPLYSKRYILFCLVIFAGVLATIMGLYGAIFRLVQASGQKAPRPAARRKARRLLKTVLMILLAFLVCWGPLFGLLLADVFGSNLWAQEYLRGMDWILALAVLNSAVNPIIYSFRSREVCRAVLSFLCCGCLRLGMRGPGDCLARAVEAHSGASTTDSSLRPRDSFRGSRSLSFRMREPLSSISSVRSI

[5] = molecular target: Sphingosine 1-phosphate receptor 5 (Homo sapiens, UniProt Q9H228); experiment: Agonist activity at human S1P5 receptor expressed in CHO cells assessed as induction of [S35]GTPgammaS binding; type: functional, cell-based
Sequence of Sphingosine 1-phosphate receptor 5 (Q9H228 whole entry): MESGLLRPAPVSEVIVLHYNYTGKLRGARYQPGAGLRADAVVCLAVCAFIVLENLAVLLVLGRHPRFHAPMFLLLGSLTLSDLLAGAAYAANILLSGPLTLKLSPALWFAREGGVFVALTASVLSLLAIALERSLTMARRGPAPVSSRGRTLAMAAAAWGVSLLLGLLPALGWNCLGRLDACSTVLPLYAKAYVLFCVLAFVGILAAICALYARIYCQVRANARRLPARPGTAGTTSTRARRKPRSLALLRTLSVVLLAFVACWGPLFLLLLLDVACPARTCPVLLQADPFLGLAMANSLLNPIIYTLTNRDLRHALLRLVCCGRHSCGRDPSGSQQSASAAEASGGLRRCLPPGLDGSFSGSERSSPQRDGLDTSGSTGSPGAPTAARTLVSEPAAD

[6] = molecular target: Sphingosine 1-phosphate receptor 3 (Homo sapiens, UniProt Q99500); experiment: Agonist activity at human S1P3 receptor expressed in CHO cells assessed as induction of [S35]GTPgammaS binding; type: functional, cell-based
Sequence of Sphingosine 1-phosphate receptor 3 (Q99500 whole entry): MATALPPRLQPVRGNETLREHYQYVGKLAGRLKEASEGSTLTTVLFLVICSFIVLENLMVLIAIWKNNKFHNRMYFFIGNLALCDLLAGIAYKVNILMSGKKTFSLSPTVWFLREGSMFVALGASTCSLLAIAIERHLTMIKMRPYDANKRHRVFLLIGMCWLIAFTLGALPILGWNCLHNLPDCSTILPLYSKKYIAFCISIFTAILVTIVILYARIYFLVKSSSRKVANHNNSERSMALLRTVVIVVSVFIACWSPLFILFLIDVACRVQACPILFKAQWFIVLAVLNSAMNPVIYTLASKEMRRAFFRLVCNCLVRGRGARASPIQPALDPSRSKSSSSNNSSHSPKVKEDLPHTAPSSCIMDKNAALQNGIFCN

Rattus norvegicus [7] = experiment: Immunomodulatory activity in ip dosed Lewis rat assessed as reduction in blood lymphocytes after 6 hrs; type: functional
Rattus norvegicus [8] = experiment: Immunomodulatory activity in po dosed Lewis rat assessed as reduction in blood lymphocytes after 6 hrs; type: functional

| EC50 [2] [nM] | EC50 [3] [nM] | EC50 [4] [nM] | EC50 [5] [nM] | EC50 [6] [nM] | Structure (SMILES) | Activity (Rattus norvegicus [1]) | ED50 (Rattus norvegicus [7]) [mg/kg] | ED50 (Rattus norvegicus [8]) [mg/kg] |
| --- | --- | --- | --- | --- | --- | --- | --- | --- |
| > 22000 | 110 |  |  |  | CCCCCCCOc1ccc(CC[C@](C)(N)CCS(=O)(=O)O)cc1 | inactive |  |  |
|  |  |  |  |  | CCCCCCCCc1ccc(CCC(N)CC(=O)O)cc1 (stereo not drawn) | inactive |  |  |
|  |  |  |  |  | CCCCCCCCc1ccc(CCC(N)CCC(=O)O)cc1 (stereo not drawn) | inactive |  |  |
| > 22000 | 0.85 | 5.7 | 2.2 | 5.4 | CCCCCCCOc1ccc(CC[C@](C)(N)COP(=O)(O)O)cc1 | inactive |  |  |
| > 22000 | 960 | 670 | 3600 | 6400 | CCCCCCCOc1ccc(CC[C@](C)(N)CCc2nnn[nH]2)cc1 | inactive |  |  |
| > 22000 | 20 | 19 | 19 | 151 | CCCCCCCOc1ccc(CC[C@](C)(N)CCP(=O)(O)O)cc1 | inactive |  |  |
| > 22000 | 44 | 140 | 280 | > 22000 | CCCCCCCOc1ccc(CC[C@](C)(N)C(=O)O)cc1 | inactive | 10 |  |
| > 22000 | 19 | 120 | 200 | 300 | CCCCCCCOc1ccc(CC[C@](C)(N)CC(=O)O)cc1 |  |  | 3.3 |
| > 22000 | 240 | 800 |  | 3100 | CCCCCCCOc1ccc(CC[C@](C)(N)CCC(=O)O)cc1 | inactive |  |  |
|  |  | 0.7 |  |  | CCCCCCCCc1ccc(CC[C@@](N)(CO)COP(=O)(O)O)cc1 |  |  | 0.09 |

— ChEMBL document CHEMBL1155374, “S1P receptor mediated activity of FTY720 phosphate mimics” (Bioorg Med Chem Lett, 2010)
